# According to paper PMC8850458, “The AUTOTAC chemical biology platform for targeted protein degradation via the autophagy-lysosome system” (Nature Communications, 2022):
# “And” between values parts separate entries of the source, which are not always exact repeats. Identical values can stand only once. Like-named read-outs stand apart in the source and are kept apart here.
# Columns and labels:
# tauP301L = tauP301L (Homo sapiens, UniProt P10636, P618L); test: WB degradation of tauP301L in SH-SY5Y-tauP301L cells; format: cell-based; settings: densitometry, dosage degradation, SH-SY5Y-Tau-TiFC; for Tau normalized to GAPDH and control, AVG %: average of N=3
# Description: Adherent cells were washed with phosphate-buffered saline (PBS) and cell pellets were lysed in SDS-based sample buffer (277.8 mM Tris-HCI, pH 6.8, 4.4% LDS, 44.4% (v/v) glycerol) containing beta-mercaptoethanol. Alternatively, cell pellets or protein supernatants were lysed in 5X Laemmli sample buffer. Whole-cell lysates were separated using SDS-PAGE, and transferred onto polyvinyllidene difluoride membranes at 100 V for 2 h at 4 °C. The membrane was incubated with a blocking solution consisting 4% skim milk in PBS solution for 30 min at room temperature and incubated with primary antibodies overnight, followed by incubation with host-specific HRP-conjugated secondary antibodies (1:10000 dilution). For signal detection, the membrane was developed with a mixture of ECL solution (Thermo Fisher Scientific) using X-ray films. Densitometry of developed bands was measured and analyzed with ImageJ (NIH, Bethesda).
# mutant HttQ103 and LC3 = test: ICC of HDQ103-GFP and LC3 co-localization in HeLa cells; format: cell-based; settings: Fig. S7k, test substances given +HCQ; for HttQ103-GFP / LC3 colocalization, AVG of cells per 50 cells: control 1; for HttQ103-GFP / LC3 colocalization, percentage AVG: control 2
# Description: Cells were cultured on coverslips coated with poly-L-lysine (Sigma) to observe cellular localization of proteins. Using 4% paraformaldehyde in PBS (pH 7.4), the cells were fixed for 15 min at room temperature and washed three times for 5 min with PBS. After fixing, the cells were permeabilized with 0.5% Triton X-100 in PBS solution for 15 min and washed three times with PBS for 5 min. The cells were blocked containing 2% BSA in PBS solution for 1 h at room temperature. Subsequently, the cells were incubated with primary antibody diluted in 2% BSA/PBS solution overnight at 4 °C, followed by washing the cells three times for 10 min with PBS and incubated with Alexa Fluor-conjugated secondary antibody diluted in 2% BSA/PBS for 30 min at room temperature. Using a DAPI-containing mounting medium (Vector Laboratories), the coverslips were mounted on glass slides. Confocal images were taken by laser scanning confocal microscope 510 Meta (Zeiss) and analyzed by Zeiss LSM Image Browser (ver. 4.2.0.121). […] Quantification results are shown as mean ± S.D. or S.E.M. of three independent experiments […]
# Supplementary Fig. 7. AUTOTACs selectively degrade pathological mutant huntingtin. […]
# (j) ICC of HeLa cells […]
# expressing HDQ103-GFP with the indicated compounds (1 μM, 24 h) treated with HCQ (10 μM, 24 h). Scale bar, 10 μm. (k) Quantification of j (n=3 biologically independent experiments each counting 50 cells). P-values (from a two-sided unpaired t-test): *P < 0.0432. Data are presented as mean values ± SD where relevant. Source data are provided with this paper. […]
# [1] = test system: tauP301L inclusion bodies; test: ICC of TauP301L-GFP autophagic targeting in HeLa cells; format: cell-based; settings: Fig. 5k, HCQ alone
# Description: Fig. 5 Selective degradation of pathological aggregation-prone tau species by aggregate-binding AUTOTAC. a–c WB in SH-SY5Y-tauP301L cells treated with PBA-1105, PBA, or YTK-1105 at the indicated concentrations. d Densitometry of (a, b, and c) (n = 3 biologically independent experiments). e–g Same as (a–c) but with Anle138b-F105, Anle138b, or YTK-105. (h) Densitometry of (e, f, and g) (n = 3 biologically independent experiments). i WB in SH-SY5Y-tauP301L cells treated with PBA-1105 (0.1 μM) at the indicated time points. j ICC of HeLa cells expressing recombinant TauP301L-GFP and treated with the indicated compounds (1 μM, 24 h) and HCQ (10 μM, 24 h). Scale bar, 10 μm. k Quantification of (j) (n = 3 biologically independent experiments each counting 50 cells). l In vivo oligomerization assay in SH-SY5Y-tauP301L cells treated with okadaic acid (15 nM, 24 h) and the indicated compounds (0.1 μM, 24 h). m Triton X-100-fractionation assay in SH-SY5Y-tauP301L cells treated with a combination of HCQ (10 μM, 24 h), okadaic acid (15 nM, 24 h) or PBA-1105 (0.1 μM, 24 h). Data are presented as mean values ± SD where relevant. P-values (from a two-sided unpaired t test): **P < 0.00821. Source data are provided with this paper.
# Cells were cultured on coverslips coated with poly-L-lysine (Sigma) to observe cellular localization of proteins. Using 4% paraformaldehyde in PBS (pH 7.4), the cells were fixed for 15 min at room temperature and washed three times for 5 min with PBS. After fixing, the cells were permeabilized with 0.5% Triton X-100 in PBS solution for 15 min and washed three times with PBS for 5 min. The cells were blocked containing 2% BSA in PBS solution for 1 h at room temperature. Subsequently, the cells were incubated with primary antibody diluted in 2% BSA/PBS solution overnight at 4 °C, followed by washing the cells three times for 10 min with PBS and incubated with Alexa Fluor-conjugated secondary antibody diluted in 2% BSA/PBS for 30 min at room temperature. Using a DAPI-containing mounting medium (Vector Laboratories), the coverslips were mounted on glass slides. Confocal images were taken by laser scanning confocal microscope 510 Meta (Zeiss) and analyzed by Zeiss LSM Image Browser (ver. 4.2.0.121). […] Quantification results are shown as mean ± S.D. or S.E.M. of three independent experiments
# LNCaP cells [2] = settings: human
# in vitro = settings: human
# LNCaP cells [3] = test: WST-based cell viability assay in LNCaP cells; settings: LNcaP, duplicates
# [4] = WST assay viability relative to con = 100
# tauP301L, sequence (P10636 1-441 isoform P10636-8 P301L): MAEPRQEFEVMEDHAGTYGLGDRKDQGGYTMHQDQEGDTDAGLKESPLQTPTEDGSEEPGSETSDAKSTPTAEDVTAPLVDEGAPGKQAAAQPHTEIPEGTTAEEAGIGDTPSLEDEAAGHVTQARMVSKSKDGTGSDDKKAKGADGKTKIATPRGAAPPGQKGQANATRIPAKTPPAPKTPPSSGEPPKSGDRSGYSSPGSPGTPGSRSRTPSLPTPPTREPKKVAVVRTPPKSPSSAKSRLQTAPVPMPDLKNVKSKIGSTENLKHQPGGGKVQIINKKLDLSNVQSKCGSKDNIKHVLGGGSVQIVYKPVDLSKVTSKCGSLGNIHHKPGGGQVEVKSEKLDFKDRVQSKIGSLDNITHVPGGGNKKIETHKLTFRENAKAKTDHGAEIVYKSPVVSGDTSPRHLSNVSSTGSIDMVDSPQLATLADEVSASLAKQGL
smiles,measurement,setting,value
"Brc1cccc(-c2cc(-c3ccc4c(c3)OCO4)[nH]n2)c1 [Anle138b, reference compound]","Tau normalized to GAPDH and control, AVG %",tauP301L; 1 nM,90.8031%
same,remaining activity at 0.001 µM,"tauP301L; 1 nM, read-out: (Tau normalized to GAPDH) normalized to control, percentage (individual replicates N=1, N=2, N=3)",89.3%
same,"Tau normalized to GAPDH and control, AVG %",tauP301L; 10 nM,101.352%
same,"Tau normalized to GAPDH and control, AVG %",tauP301L; 100 nM,84.5794%
same,"Tau normalized to GAPDH and control, AVG %",tauP301L; 1 uM,69.922%
same,"Tau normalized to GAPDH and control, AVG %",tauP301L; 10uM,83.6402%
same,"HttQ103-GFP / LC3 colocalization, AVG of cells per 50 cells",mutant HttQ103 and LC3,21
same,"HttQ103-GFP / LC3 colocalization, percentage AVG",mutant HttQ103 and LC3,42
CCN(CCO)CCCC(C)Nc1ccnc2cc(Cl)ccc12 (centres unmarked) [HCQ],"TauP301L-GFP / LC3 colocalization, AVG of cells per 50 cells",[1],11.3333
same,"TauP301L-GFP / LC3 colocalization, percentage AVG",[1],22.6667 percentage
same,"TauP301L-GFP / LC3 colocalization, cells counted per 50 cells (individual replicates)",[1]; count out of 50 cells,15 and 7 and 12
same,"HttQ103-GFP / LC3 colocalization, AVG of cells per 50 cells",mutant HttQ103 and LC3,14.6667
same,"HttQ103-GFP / LC3 colocalization, percentage AVG",mutant HttQ103 and LC3,29.3333
same,"HttQ103-GFP / LC3 colocalization, cells counted per 50 cells",mutant HttQ103 and LC3; single experiments,13 and 17 and 14
C=CC1(C)OC(=O)N(c2cc(Cl)cc(Cl)c2)C1=O (centres unmarked) [Vinclozolin],WST assay viability relative to con = 100,LNCaP cells [2]; 0.01 µM,103.812
same,WST assay viability relative to con = 100,LNCaP cells [2]; 0.1 µM,103.962
same,WST assay viability relative to con = 100,LNCaP cells [2]; 1 µM,97.4197
same,WST assay viability relative to con = 100,LNCaP cells [2]; 10 µM,103.712
same,WST assay viability relative to con = 100,LNCaP cells [2]; 50 µM,108.507
same,WST assay viability relative to con = 100,LNCaP cells [2]; 100 µM,100.466
same,viability at 0.01 µM,in vitro; [4],96.4%
same,viability at 0.1 µM,in vitro; [4],91.3%
same,viability at 1 µM,in vitro; [4],89.8%
same,viability at 10 µM,in vitro; [4],92.8%
same,viability at 50 µM,in vitro; [4],94.7%
same,viability at 100 µM,in vitro; [4],111%
same,viability at 0.01 µM,"in vitro; WST assay viability, AVG %",100%
same,viability at 0.1 µM,"in vitro; WST assay viability, AVG %",97.6%
same,viability at 1 µM,"in vitro; WST assay viability, AVG %",93.6%
same,viability at 10 µM,"in vitro; WST assay viability, AVG %",98.3%
same,viability at 50 µM,"in vitro; WST assay viability, AVG %",102%
same,viability at 100 µM,"in vitro; WST assay viability, AVG %",106%
same,WST assay raw reading,LNCaP cells [3]; 0.01uM,2.034 and 2.182
same,WST assay raw reading,LNCaP cells [3]; 0.1uM,1.931 and 2.185
same,WST assay raw reading,LNCaP cells [3]; 1uM,1.901 and 2.054
same,WST assay raw reading,LNCaP cells [3]; 10uM,1.962 and 2.18
same,WST assay raw reading,LNCaP cells [3]; 50uM,1.999 and 2.276
same,WST assay raw reading,LNCaP cells [3]; 100uM,2.333 and 2.115
